Test results taken from PubChem BioAssay AID2060333 (Molecular Pharmacology Branch, DTP, NCI, 2025).

Tested on: 845751-090-R-J2-PDC tumor spheroid viability
Experiment: Anticancer human tumor 845751-090-R-J2-PDC patient-derived head and neck squamous carcinoma cell line growth inhibition [IpAb]
Settings: spheroids with HUVEC and MSC; for IC50: curve of first compound; for viability, T/C: stronger effect = lower value
Procedure, shortened: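 Multi-cell spheroids of 60% tumour cells, 25% HUVEC and 15% MSC in ultra-low-attachment U-bottom wells, treated with agents combined with ipatasertib or abemaciclib. Half-log ranges top out near clinical Cmax, or 10 microM when Cmax is unknown.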

[1] = second compound 0.01 µM, first compound 0.0316 µM
[2] = second compound 0.01 µM, first compound 0.1 µM
[3] = second compound 0.01 µM, first compound 0.316 µM
[4] = second compound 0.01 µM, first compound 1 µM
[5] = second compound 0.01 µM, first compound 3.16 µM
[6] = second compound 0.01 µM, first compound 10 µM
[7] = second compound 0.0316 µM, first compound 0.0316 µM
[8] = second compound 0.0316 µM, first compound 0.1 µM
[9] = second compound 0.0316 µM, first compound 0.316 µM
[10] = second compound 0.0316 µM, first compound 1 µM
[11] = second compound 0.0316 µM, first compound 3.16 µM
[12] = second compound 0.0316 µM, first compound 10 µM
[13] = second compound 0.1 µM, first compound 0.0316 µM
[14] = second compound 0.1 µM, first compound 0.1 µM
[15] = second compound 0.1 µM, first compound 0.316 µM
[16] = second compound 0.1 µM, first compound 1 µM
[17] = second compound 0.1 µM, first compound 3.16 µM
[18] = second compound 0.1 µM, first compound 10 µM
[19] = second compound 0.316 µM, first compound 0.0316 µM
[20] = second compound 0.316 µM, first compound 0.1 µM
[21] = second compound 0.316 µM, first compound 0.316 µM
[22] = second compound 0.316 µM, first compound 1 µM
[23] = second compound 0.316 µM, first compound 3.16 µM
[24] = second compound 0.316 µM, first compound 10 µM
[25] = second compound 1 µM, first compound 0.0316 µM
[26] = second compound 1 µM, first compound 0.1 µM
[27] = second compound 1 µM, first compound 0.316 µM
[28] = second compound 1 µM, first compound 1 µM
[29] = second compound 1 µM, first compound 3.16 µM
[30] = second compound 1 µM, first compound 10 µM
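Further: spheroids exposed to compounds for 7 days before readout.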
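Wherever viability, T/C is given: CTG3D luminescence normalised so that 100% = DMSO vehicle control.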

| SMILES | IC50 (second compound 0.01 µM) | IC50 (second compound 0.0316 µM) | IC50 (second compound 0.1 µM) | IC50 (second compound 0.316 µM) | IC50 (second compound 1 µM) | viability, T/C [1] | viability, T/C [2] | viability, T/C [3] | viability, T/C [4] | viability, T/C [5] | viability, T/C [6] | viability, T/C [7] | viability, T/C [8] | viability, T/C [9] | viability, T/C [13] | viability, T/C [14] | viability, T/C [19] | viability, T/C [20] | viability, T/C [25] | viability, T/C [26] | other results |
| --- | --- | --- | --- | --- | --- | --- | --- | --- | --- | --- | --- | --- | --- | --- | --- | --- | --- | --- | --- | --- | --- |
| C=CCn1c(=O)c2cnc(Nc3ccc(N4CCN(C)CC4)cc3)nc2n1-c1cccc(C(C)(C)O)n1 + CCN1CCN(Cc2ccc(Nc3ncc(F)c(-c4cc(F)c5nc(C)n(C(C)C)c5c4)n3)nc2)CC1 | > 10000 nM | 4170 nM | 2000 nM | 8970 nM | > 10000 nM | 104% | 68.3% | 68.3% | 57.4% | 50.8% | 48.9% | 66.4% | 71.4% | 62.2% | 66.8% | 64.8% | 59% | 68.7% | 88.9% | 97.6% | viability, T/C [10]: 60.8%; viability, T/C [11]: 53.1%; viability, T/C [12]: 40.8%; viability, T/C [15]: 60.8%; viability, T/C [16]: 47.7%; viability, T/C [17]: 50.5%; viability, T/C [18]: 43.2%; viability, T/C [21]: 69.2%; viability, T/C [22]: 60.3%; viability, T/C [23]: 59.8%; viability, T/C [24]: 49.1%; viability, T/C [27]: 83.9%; viability, T/C [28]: 107%; viability, T/C [29]: 95.7%; viability, T/C [30]: 66.7% |
| CC(C)n1nc(-c2ccc3oc(N)nc3c2)c2c(N)ncnc21 + CCN1CCN(Cc2ccc(Nc3ncc(F)c(-c4cc(F)c5nc(C)n(C(C)C)c5c4)n3)nc2)CC1 | 1.1 nM | 3.84 nM | 2.92 nM | 2.75 nM | 12.3 nM | 26.8% | 21.1% |  |  |  |  | 26.6% | 23.5% |  | 25.7% | 20.6% | 32.7% | 30.2% | 45.5% | 34.7% | viability, T/C (second compound 0.01 µM, first compound 0.000316 µM): 72.6%; viability, T/C (second compound 0.01 µM, first compound 0.001 µM): 47.8%; viability, T/C (second compound 0.01 µM, first compound 0.00316 µM): 39.2%; viability, T/C (second compound 0.01 µM, first compound 0.01 µM): 33%; viability, T/C (second compound 0.0316 µM, first compound 0.000316 µM): 66.7%; viability, T/C (second compound 0.0316 µM, first compound 0.001 µM): 68.2%; viability, T/C (second compound 0.0316 µM, first compound 0.00316 µM): 54.3%; viability, T/C (second compound 0.0316 µM, first compound 0.01 µM): 28.1%; viability, T/C (second compound 0.1 µM, first compound 0.000316 µM): 62.6%; viability, T/C (second compound 0.1 µM, first compound 0.001 µM): 50.2%; viability, T/C (second compound 0.1 µM, first compound 0.00316 µM): 52.2%; viability, T/C (second compound 0.1 µM, first compound 0.01 µM): 30.3%; viability, T/C (second compound 0.316 µM, first compound 0.000316 µM): 47.5%; viability, T/C (second compound 0.316 µM, first compound 0.001 µM): 56.6%; viability, T/C (second compound 0.316 µM, first compound 0.00316 µM): 49.6%; viability, T/C (second compound 0.316 µM, first compound 0.01 µM): 33.4%; viability, T/C (second compound 1 µM, first compound 0.000316 µM): 56.7%; viability, T/C (second compound 1 µM, first compound 0.001 µM): 74%; viability, T/C (second compound 1 µM, first compound 0.00316 µM): 57.7%; viability, T/C (second compound 1 µM, first compound 0.01 µM): 49% |
| CCCS(=O)(=O)Nc1ccc(F)c(C(=O)c2c[nH]c3ncc(-c4ccc(Cl)cc4)cc23)c1F + CCN1CCN(Cc2ccc(Nc3ncc(F)c(-c4cc(F)c5nc(C)n(C(C)C)c5c4)n3)nc2)CC1 | 590 nM | 681 nM | 454 nM | 582 nM | 907 nM | 95% | 70.8% | 52.4% | 50.7% | 35% | 24.7% | 86.4% | 64.9% | 66.6% | 65% | 60.2% | 74.2% | 65.7% | 81.5% | 81.2% | viability, T/C [10]: 43.4%; viability, T/C [11]: 30.9%; viability, T/C [12]: 20.5%; viability, T/C [15]: 58.8%; viability, T/C [16]: 30.9%; viability, T/C [17]: 23.2%; viability, T/C [18]: 29.5%; viability, T/C [21]: 63.4%; viability, T/C [22]: 38.6%; viability, T/C [23]: 28.6%; viability, T/C [24]: 23%; viability, T/C [27]: 70.3%; viability, T/C [28]: 47.4%; viability, T/C [29]: 38.1%; viability, T/C [30]: 32.1% |
